Measured values published in ChEMBL document CHEMBL4184219, “Binding-Site Compatible Fragment Growing Applied to the Design of β2-Adrenergic Receptor Ligands” (J Med Chem, 2018).
pKi: −log10 of the molar value.

Key:
[1] = molecular target: T1, Beta-2 adrenergic receptor (Homo sapiens, UniProt P07550); test: Displacement of [3H]-DHA from Nb80-fused beta2 adrenergic receptor (unknown origin) expressed in Sf9 cell membranes after 2 hrs by microbeta scintillation counting method
[2] = molecular target: T1, Beta-2 adrenergic receptor; test: Displacement of [3H]-DHA from Nb69-fused beta2 adrenergic receptor (unknown origin) expressed in Sf9 cell membranes after 2 hrs by microbeta scintillation counting method
[3] = molecular target: T1, Beta-2 adrenergic receptor; test: Ratio of Ki for Nb69-fused beta2 adrenergic receptor (unknown origin) to Ki for Nb80-fused beta2 adrenergic receptor (unknown origin)

T1 sequence (P07550 whole entry, looked up, the tested form may be a part): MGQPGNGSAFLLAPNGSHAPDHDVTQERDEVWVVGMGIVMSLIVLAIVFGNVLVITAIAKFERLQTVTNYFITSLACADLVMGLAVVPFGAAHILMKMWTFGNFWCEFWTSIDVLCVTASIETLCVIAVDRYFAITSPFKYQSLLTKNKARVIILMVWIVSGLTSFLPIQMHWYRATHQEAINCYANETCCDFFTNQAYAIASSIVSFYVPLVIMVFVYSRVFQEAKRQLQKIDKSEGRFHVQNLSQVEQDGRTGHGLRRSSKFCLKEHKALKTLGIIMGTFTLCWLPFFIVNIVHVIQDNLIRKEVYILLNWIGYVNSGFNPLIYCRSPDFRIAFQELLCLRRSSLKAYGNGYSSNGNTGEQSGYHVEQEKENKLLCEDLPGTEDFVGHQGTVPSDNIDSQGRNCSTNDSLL

pKi [1] | pKi [2] | Ratio Ki [3] | Compound
4.47 | 3.44 | 11 | CNCc1ccc(-c2nccs2)cc1
4.02 | < 3.00 | > 51 | OCC(NCc1ccc(-c2nccs2)cc1)c1ccco1 (centres undefined)
4.47 | < 3.00 | > 61 | CC(N)c1ccc(Cl)cc1 (centres undefined)
6.28 | 5.41 | 7.5 | COc1ccc2c(c1)c(CCNCCCc1ccc(Cl)cc1)cn2C
4.28 | 3.41 | 7.5 | C[C@H](CC(F)(F)F)NCc1ccc(-c2nccs2)cc1
5.36 | 3.57 | 61 | Cc1ccccc1C(C)NCc1ccc(-c2ncccn2)cc1 (centres undefined)
5.10 | 4.13 | 9.4 | CC(NC1CC(c2ccc(F)cc2)C1)c1ccc(Cl)cc1 (centres undefined)
4.11 | < 3.00 | > 91 | NCc1ccc(-c2ncccn2)cc1
4.98 | 4.60 | 2.4 | COc1ccc2c(c1)c(CCNCCCc1cccc(C(F)(F)F)c1)cn2C
4.36 | 3.43 | 8.6 | CNCc1cc2ccccc2s1
< 3.00 | < 3.00 | > 10 | CC1(NCc2cc3ccccc3s2)COC1

Compound | pKi [1] | pKi [2] | Ratio Ki [3]
COc1ccc2c(c1)c(CCN)cn2C | 4.69 | 4.44 | 1.8
COc1ccc2c(c1)c(CCNCc1cc(OC(F)(F)F)ccc1F)cn2C | 4.09 | 4.08 | 1
